Measurements published in ChEMBL document CHEMBL5678803, “Selective blockade of TRPA1 channel attenuates pathological pain without altering noxious cold sensation or body temperature regulation” (Pain, 2011).
Activity calls are given as the source filed them. The calls are words filed in the database; no cut-off is given here.

What was measured:
[1] = molecular target: Transient receptor potential cation channel subfamily V member 1 (Homo sapiens, UniProt Q8NER1); assay: Antagonist activity at human TRPV1 expressed in HEK293F cells assessed as inhibition of capsaicin-induced TRPV1 channel activation by FLIPR-based Ca2+ assay relative to control; assay type: cell-based; settings: concentration not given here
[2] = molecular target: Transient receptor potential cation channel subfamily A member 1 (Rattus norvegicus, UniProt Q6RI86); assay: Antagonist activity at rat TRPA1 expressed in HEK293F cells assessed as reduction in AITC-induced increase in intracellular Ca2+ level by FLIPR-based Ca2+ assay; assay type: cell-based
[3] = molecular target: Transient receptor potential cation channel subfamily A member 1 (Rattus norvegicus) (UniProt Q6RI86); assay: Antagonist activity at endogenous TRPA1 in rat DRG neurons assessed as blockade of AITC-induced CGRP release at 5 micromol/L; assay type: cell-based; settings: DRG neuron, filed as antagonist, dose 5.0 µmol/L
[4] = Tmax in rat at 2 mg/kg, po; assay type: ADME, organism-based; settings: in vivo
[5] = Stability of compound in aqueous tetrahydrofuran buffer at pH 7.5 assessed as compound remaining incubated for 16 hrs in presence of glutathione by nuclear magnetic resonance spectroscopy based LC-MS analysis; assay type: physicochemical; settings: aqueous tetrahydrofuran buffer with glutathione, read-out: Stability
[6] = molecular target: Transient receptor potential cation channel subfamily A member 1 (Homo sapiens, UniProt O75762); assay: Antagonist activity at recombinant human TRPA1 expressed in HEK293F cells assessed as reduction in AITC-induced increase in intracellular Ca2+ level by FLIPR-based Ca2+ assay; assay type: cell-based; settings: filed as antagonist
[7] = molecular target: T1, Transient receptor potential cation channel subfamily V member 4 (Homo sapiens, UniProt Q9HBA0); assay: Activation of human TRPV4 expressed in HEK293F cells upto 100 micromol/L; assay type: cell-based; settings: dose <= 100.0 µmol/L
Rattus norvegicus = assay: Analgesic activity in AITC-induced nocifensive response Sprague-Dawley rat model assessed as prevention of mustard oil-induced flinching behavior administered orally for 1 hrs; assay type: functional, organism-based; settings: dose 6.2-62.1 mg/kg, route po
[8] = Toxicity in CD1 mouse assessed as effect on first jump latency at 0 degreeC at 62.1 mg/kg, po measured after 4 mins by noxious cold plate assay; assay type: organism-based; settings: in vivo
[9] = Drug concentration in rat at 20.7 mg/kg, po measured after 60 mins; assay type: ADME, organism-based; settings: in vivo, read-out: Drug uptake
[10] = Oral bioavailability in rat at 2 mg/kg; assay type: ADME, organism-based; settings: in vivo
[11] = molecular target: T2, Transient receptor potential cation channel subfamily M member 8 (Homo sapiens, UniProt Q7Z2W7); assay: Antagonist activity at human TRPM8 expressed in HEK293F cells assessed as inhibition of menthol-induced increase in intracellular Ca2+ level by FLIPR-based Ca2+ assay; assay type: cell-based
[12] = molecular target: Transient receptor potential cation channel subfamily A member 1 (Mus musculus, UniProt Q8BLA8); assay: Antagonist activity at mouse TRPA1 expressed in HEK293F cells assessed as reduction in AITC-induced increase in intracellular Ca2+ level by FLIPR-based Ca2+ assay; assay type: cell-based
[13] = molecular target: T3, Transient receptor potential cation channel subfamily V member 2 (Rattus norvegicus, UniProt Q9WUD2); assay: Antagonist activity at rat TRPV2 expressed in HEK293F cells assessed as inhibition of 2APB-induced increase in intracellular Ca2+ level by FLIPR-based Ca2+ assay; assay type: cell-based
T3 sequence (Q9WUD2 whole entry): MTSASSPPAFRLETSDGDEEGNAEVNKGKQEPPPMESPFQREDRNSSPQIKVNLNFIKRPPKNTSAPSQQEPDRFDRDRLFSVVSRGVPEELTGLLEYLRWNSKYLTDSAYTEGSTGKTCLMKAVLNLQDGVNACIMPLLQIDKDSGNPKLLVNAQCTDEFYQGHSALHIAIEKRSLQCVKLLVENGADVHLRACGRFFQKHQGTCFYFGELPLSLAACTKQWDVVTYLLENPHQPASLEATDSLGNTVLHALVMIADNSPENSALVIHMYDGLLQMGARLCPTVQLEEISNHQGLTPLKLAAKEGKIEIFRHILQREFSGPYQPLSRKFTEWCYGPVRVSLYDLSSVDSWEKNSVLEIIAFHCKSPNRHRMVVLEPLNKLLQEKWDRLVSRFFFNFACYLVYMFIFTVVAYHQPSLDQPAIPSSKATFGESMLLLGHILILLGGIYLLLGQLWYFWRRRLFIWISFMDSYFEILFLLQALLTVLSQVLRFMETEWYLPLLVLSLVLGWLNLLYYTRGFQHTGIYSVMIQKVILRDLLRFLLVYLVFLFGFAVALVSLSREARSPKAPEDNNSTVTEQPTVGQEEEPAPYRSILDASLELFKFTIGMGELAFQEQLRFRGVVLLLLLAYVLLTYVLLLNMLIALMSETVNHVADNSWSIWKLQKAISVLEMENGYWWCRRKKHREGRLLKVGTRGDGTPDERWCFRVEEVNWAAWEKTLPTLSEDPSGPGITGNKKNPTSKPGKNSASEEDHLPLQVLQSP

[14] = molecular target: Transient receptor potential cation channel subfamily A member 1 (Rattus norvegicus) (UniProt Q6RI86); assay: Antagonist activity at endogenous TRPA1 in rat DRG neurons assessed as blockade of AITC-induced Ca2+ signals at 1 micromol/L by […] Ca2+ imaging analysis; assay type: cell-based; settings: DRG neuron, filed as antagonist, dose 1.0 µmol/L
[15] = Toxicity in Sprague-Dawley rat assessed as effect on heart rate; settings: in vivo
[16] = molecular target: T1, Transient receptor potential cation channel subfamily V member 4; assay: Antagonist activity at human TRPV4 expressed in HEK293F cells assessed as inhibition of mOsmo-induced TRPV4 channel activation by FLIPR-based Ca2+ assay relative to control; assay type: cell-based; settings: concentration not given here
[17] = molecular target: T2, Transient receptor potential cation channel subfamily M member 8; assay: Antagonist activity at human TRPM8 expressed in HEK293F cells assessed as inhibition of menthol-induced TRPM8 channel activation by FLIPR-based Ca2+ assay relative to control; assay type: cell-based; settings: concentration not given here
[18] = molecular target: Sodium-dependent noradrenaline transporter (Homo sapiens) (UniProt P23975); assay: Inhibition of norepinephrine transporter (unknown origin) at 10 micromol/L by radioligand binding assay; settings: dose 10.0 µmol/L
[19] = Drug concentration in rat at 62.1 mg/kg, po measured after 60 mins; assay type: ADME, organism-based; settings: in vivo, read-out: Drug uptake
[20] = molecular target: T4, Transient receptor potential cation channel subfamily V member 2 (Rattus norvegicus) (UniProt Q9WUD2); assay: Activation of rat TRPV2 expressed in HEK293F cells upto 100 micromol/L; assay type: cell-based; settings: dose <= 100.0 µmol/L
T4 sequence (whole entry): T3 sequence (Q9WUD2 whole entry)

Transient receptor potential cation channel subfamily A member 1 (Rattus norvegicus), sequence (Q6RI86 whole entry): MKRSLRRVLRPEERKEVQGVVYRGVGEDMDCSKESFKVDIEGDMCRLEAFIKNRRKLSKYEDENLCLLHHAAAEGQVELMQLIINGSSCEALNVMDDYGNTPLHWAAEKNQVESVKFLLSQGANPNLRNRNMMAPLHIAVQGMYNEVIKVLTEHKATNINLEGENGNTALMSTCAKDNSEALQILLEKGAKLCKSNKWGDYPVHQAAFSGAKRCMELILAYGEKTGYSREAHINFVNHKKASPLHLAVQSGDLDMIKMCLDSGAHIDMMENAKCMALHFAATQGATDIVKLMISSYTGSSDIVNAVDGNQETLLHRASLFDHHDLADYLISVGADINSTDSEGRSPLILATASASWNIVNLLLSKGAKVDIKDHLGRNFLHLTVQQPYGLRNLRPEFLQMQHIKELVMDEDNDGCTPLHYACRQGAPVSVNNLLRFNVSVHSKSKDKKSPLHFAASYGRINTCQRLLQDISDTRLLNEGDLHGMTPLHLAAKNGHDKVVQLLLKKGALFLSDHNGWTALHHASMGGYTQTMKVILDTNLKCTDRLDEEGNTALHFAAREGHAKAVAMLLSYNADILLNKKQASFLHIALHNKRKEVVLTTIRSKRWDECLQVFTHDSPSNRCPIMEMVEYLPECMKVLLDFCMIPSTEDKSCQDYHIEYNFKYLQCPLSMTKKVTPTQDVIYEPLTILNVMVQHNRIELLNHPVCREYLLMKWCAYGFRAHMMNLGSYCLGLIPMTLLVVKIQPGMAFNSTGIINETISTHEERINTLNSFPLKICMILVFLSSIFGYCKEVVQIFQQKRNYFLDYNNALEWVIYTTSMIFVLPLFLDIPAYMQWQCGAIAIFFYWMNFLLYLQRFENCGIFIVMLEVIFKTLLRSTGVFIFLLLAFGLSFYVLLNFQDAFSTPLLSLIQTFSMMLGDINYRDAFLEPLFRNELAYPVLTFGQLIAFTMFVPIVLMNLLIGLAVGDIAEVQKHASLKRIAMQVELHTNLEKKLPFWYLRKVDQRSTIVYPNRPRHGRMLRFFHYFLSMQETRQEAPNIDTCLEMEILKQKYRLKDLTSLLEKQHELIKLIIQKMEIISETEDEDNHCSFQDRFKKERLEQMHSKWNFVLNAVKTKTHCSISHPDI
T1 sequence (Q9HBA0 whole entry): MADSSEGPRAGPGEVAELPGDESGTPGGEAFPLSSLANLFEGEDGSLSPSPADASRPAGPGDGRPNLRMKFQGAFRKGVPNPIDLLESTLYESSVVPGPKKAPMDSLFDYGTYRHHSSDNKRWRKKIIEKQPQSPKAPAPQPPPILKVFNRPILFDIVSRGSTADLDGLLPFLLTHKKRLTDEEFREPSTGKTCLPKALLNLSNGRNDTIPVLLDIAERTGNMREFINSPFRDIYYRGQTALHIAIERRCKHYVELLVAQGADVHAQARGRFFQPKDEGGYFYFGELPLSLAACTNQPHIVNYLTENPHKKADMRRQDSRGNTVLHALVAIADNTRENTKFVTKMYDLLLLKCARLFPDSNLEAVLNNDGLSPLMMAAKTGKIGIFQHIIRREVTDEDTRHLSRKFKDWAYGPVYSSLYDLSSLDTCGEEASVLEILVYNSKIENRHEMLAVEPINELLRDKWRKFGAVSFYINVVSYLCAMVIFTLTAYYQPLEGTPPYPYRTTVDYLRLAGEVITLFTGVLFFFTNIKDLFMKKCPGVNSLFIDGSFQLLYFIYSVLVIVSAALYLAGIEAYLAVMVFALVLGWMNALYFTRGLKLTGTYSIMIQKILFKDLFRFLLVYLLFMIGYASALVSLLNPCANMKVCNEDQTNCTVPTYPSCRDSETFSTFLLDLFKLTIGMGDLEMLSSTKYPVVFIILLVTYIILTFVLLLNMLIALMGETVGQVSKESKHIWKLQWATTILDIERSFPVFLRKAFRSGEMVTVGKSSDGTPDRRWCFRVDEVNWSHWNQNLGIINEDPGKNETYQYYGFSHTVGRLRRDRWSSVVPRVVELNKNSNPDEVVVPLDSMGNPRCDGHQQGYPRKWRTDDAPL
Transient receptor potential cation channel subfamily A member 1 (Rattus norvegicus, UniProt Q6RI86), sequence (Q6RI86 whole entry): as the sequence (Q6RI86 whole entry) above
Transient receptor potential cation channel subfamily V member 1, sequence (Q8NER1 whole entry): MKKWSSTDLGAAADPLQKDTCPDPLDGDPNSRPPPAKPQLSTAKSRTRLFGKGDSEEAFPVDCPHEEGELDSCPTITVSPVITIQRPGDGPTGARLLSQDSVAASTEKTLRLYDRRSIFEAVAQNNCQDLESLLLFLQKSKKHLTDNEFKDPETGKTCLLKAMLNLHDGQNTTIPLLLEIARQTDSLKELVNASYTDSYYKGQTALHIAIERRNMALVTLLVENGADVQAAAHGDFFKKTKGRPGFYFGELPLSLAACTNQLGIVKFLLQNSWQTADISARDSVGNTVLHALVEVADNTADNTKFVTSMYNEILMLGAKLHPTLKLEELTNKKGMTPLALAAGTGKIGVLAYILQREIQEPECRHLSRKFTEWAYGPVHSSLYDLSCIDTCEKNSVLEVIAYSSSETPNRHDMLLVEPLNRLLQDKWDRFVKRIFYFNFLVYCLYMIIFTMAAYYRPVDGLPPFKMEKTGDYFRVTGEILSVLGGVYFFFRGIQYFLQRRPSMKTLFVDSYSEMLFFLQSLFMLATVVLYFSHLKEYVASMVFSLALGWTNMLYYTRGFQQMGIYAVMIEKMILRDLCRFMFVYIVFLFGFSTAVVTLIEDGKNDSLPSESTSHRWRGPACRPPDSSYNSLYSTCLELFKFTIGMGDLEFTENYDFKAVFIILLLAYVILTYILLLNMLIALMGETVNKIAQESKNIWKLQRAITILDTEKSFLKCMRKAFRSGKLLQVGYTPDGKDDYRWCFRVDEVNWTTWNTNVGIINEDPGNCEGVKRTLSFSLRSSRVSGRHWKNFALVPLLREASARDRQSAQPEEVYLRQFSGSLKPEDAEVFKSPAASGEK
Sodium-dependent noradrenaline transporter (Homo sapiens), sequence (P23975 whole entry): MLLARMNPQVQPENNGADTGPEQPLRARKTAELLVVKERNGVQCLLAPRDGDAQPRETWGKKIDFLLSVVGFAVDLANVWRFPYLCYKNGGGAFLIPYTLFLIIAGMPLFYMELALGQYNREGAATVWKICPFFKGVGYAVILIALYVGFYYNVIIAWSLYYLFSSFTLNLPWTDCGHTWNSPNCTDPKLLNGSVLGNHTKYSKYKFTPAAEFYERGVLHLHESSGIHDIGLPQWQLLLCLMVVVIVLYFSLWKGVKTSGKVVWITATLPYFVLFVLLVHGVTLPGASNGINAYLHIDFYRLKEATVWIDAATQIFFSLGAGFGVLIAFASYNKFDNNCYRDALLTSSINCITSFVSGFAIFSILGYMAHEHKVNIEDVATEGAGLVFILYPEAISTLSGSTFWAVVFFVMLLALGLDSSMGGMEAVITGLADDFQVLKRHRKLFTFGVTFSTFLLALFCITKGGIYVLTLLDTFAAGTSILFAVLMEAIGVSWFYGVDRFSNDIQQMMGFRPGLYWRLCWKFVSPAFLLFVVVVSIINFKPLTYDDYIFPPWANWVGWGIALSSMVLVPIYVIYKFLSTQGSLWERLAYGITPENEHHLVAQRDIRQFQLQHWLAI
Transient receptor potential cation channel subfamily A member 1 (Homo sapiens, UniProt O75762), sequence (O75762 whole entry): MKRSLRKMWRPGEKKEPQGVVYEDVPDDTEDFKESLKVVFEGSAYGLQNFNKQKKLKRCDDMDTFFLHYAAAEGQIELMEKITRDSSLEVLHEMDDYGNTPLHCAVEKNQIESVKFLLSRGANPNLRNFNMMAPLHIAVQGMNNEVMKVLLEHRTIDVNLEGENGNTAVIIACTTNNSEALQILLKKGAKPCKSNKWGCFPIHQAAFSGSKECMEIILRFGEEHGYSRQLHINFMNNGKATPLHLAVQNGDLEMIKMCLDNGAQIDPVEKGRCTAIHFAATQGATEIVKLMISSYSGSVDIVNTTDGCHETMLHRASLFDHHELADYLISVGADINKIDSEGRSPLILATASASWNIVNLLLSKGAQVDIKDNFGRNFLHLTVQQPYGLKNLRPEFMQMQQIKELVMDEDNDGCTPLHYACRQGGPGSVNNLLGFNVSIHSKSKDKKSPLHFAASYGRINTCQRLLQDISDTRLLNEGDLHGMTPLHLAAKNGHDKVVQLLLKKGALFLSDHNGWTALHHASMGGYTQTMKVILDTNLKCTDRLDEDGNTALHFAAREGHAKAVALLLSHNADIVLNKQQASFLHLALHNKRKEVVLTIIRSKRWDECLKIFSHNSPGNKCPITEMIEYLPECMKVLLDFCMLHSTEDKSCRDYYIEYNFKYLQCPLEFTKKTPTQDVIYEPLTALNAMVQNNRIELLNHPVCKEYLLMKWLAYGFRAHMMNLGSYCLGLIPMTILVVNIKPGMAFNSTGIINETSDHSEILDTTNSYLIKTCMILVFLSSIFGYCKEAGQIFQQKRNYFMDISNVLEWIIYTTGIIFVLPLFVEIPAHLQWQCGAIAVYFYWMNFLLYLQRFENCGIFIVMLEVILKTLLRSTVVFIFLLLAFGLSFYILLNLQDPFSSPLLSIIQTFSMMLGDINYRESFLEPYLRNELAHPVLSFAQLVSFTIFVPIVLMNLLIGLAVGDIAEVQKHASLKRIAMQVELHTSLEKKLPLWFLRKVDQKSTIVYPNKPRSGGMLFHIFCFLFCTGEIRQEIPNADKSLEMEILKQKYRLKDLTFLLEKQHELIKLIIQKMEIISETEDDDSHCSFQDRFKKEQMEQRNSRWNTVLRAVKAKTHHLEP

In the case of CCC(=N\O)/C(C)=C/c1ccc(F)cc1 [A-079], the inhibition [1] is reported as < 20%, the IC50 [2] is reported as 289 nM and the Activity [3] is reported as “Active”. For the same molecule, the Tmax [4] was 30 min, the remaining at 16 h [5] was > 95% and the Activity [6] was “Dose-Dependent Effect”. The Activity [7] was “inactive”, the Activity (Rattus norvegicus) was “Dose-Dependent Effect” and the Activity [8] was “Non-Toxic”. For the same molecule, the concentration at 1 h [9] was 6.22 µM, the bioavailability [10] was 37% and the IC50 [11] was > 100000 nM. For the same molecule, the IC50 [12] was 296 nM, the IC50 [13] was > 100000 nM and the Activity [14] was “Active”. For the same molecule, the Activity [15] was “Non-Toxic”, the inhibition [16] was < 20% and the inhibition [17] was < 20%. The inhibition [18] was 32%, the concentration at 1 h [19] was 11.8 µM and the Activity [20] was “inactive”.
